Data taken from PubChem BioAssay (NCI).
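Dose response: 5 concentrations. Exposure: 48 h. Format: 96-well plates. Endpoint: linear interpolation; highest concentration if not reached. Here, GI50 denotes the concentration required for 50% inhibition of growth. TGI marks complete inhibition of growth.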

Legend:
Assay in all cases: NCI tumour cell line growth inhibition, 48 h
[1] = test system: HL-60(TB) leukemia
[2] = test system: SK-MEL-2 melanoma
[3] = test system: SK-OV-3 ovarian
[4] = test system: NCI-H23 lung
[5] = test system: COLO 205 colon
[6] = test system: OVCAR-8 ovarian
[7] = test system: OVCAR-3 ovarian
[8] = test system: RPMI-8226 leukemia
[9] = test system: M14 melanoma
[10] = test system: EKVX NSCLC

Row | Compound | GI50 [1] [µM] | TGI [1] [µM] | GI50 [2] [µM] | TGI [2] [µM] | GI50 [3] [µM] | TGI [3] [µM] | GI50 [4] [µM] | TGI [4] [µM] | GI50 [5] [µM] | TGI [5] [µM] | GI50 [6] [µM] | TGI [6] [µM] | GI50 [7] [µM] | TGI [7] [µM] | GI50 [8] [µM] | TGI [8] [µM] | GI50 [9] [µM] | TGI [9] [µM] | GI50 [10] [µM] | TGI [10] [µM]
1 | COc1ccc(-c2c3c(N)nc(-c4ccncc4)nc3nc3c2c(C)nn3-c2ccccc2)cc1 | > 100 | > 100 | 31 | > 100 | 5.25 | 54 | 9.67 | > 100 | 6.12 | > 100 | 7.11 | > 100 | 3.89 | 16 | > 100 | > 100 | 17.5 | > 100 |  | 
2 | O=C1/C(=C\c2c[nH]c3ccccc23)c2ccccc2N1c1c(Cl)cccc1Cl | 1.55 | 3.82 | 1.94 | 3.65 | 2.13 | 5.27 | 1.66 | 3.38 | 1.8 | 3.27 | 3.26 | 11.2 | 1.83 | 3.78 | 1.89 | 4.68 |  |  | 1.63 | 4.91
3 | C1C[OH+]CC[OH+]CCNCC[OH+]CC[OH+]CCN1.N.[Cl-].[Pt+4] | 1.61 | > 100 | 19.9 | 53 | 15.1 | 60.9 | 1.8 | 12 | 36.7 | > 100 | 17 | > 100 | 4.12 | 19.4 | 10.2 | 92.7 | 5.31 | 23.6 |  | 
4 | COC(C(=O)[O][Ge]([CH3])([CH3])[CH3])c1ccccc1 (stereo not drawn) |  |  |  |  | > 100 | > 100 | > 100 | > 100 | > 100 | > 100 | > 100 | > 100 | > 100 | > 100 | > 100 | > 100 | > 100 | > 100 | > 100 | > 100
5 | NCCOCCOCCNc1nc(Cc2ccccc2)nc(NCCCN2CCCC2=O)n1 | > 100 | > 100 |  |  | > 100 | > 100 | > 100 | > 100 | > 100 | > 100 | > 100 | > 100 | > 100 | > 100 | > 100 | > 100 | > 100 | > 100 |  | 
6 | CC1(C)CC(=O)c2c(C(F)(F)F)nn(-c3ccc(C(N)=O)c(NC4CCC(OC(=O)CN)CC4)c3)c2C1 (stereo not drawn) | 0.0398 | 13.2 | 0.0683 | > 100 | 0.0238 | > 100 | 0.0935 | > 100 | 0.0289 | 8.03 | 0.0593 | > 100 | 0.159 | > 100 | 0.356 | > 60.1 | 0.0608 | 26.5 |  | 
7 | CCc1ccccc1NC(=O)C(=O)CC(=O)c1sc(Nc2ccccc2)nc1C |  | > 100 |  | > 100 |  | > 100 |  | > 100 |  | > 100 |  | > 100 |  | > 100 |  |  |  | > 100 |  | > 100
8 | NC1C[C@H](n2cc(/C=C/Br)c(=O)[nH]c2=O)C[C@@H]1CO (stereo partly drawn) |  | > 100 |  |  |  | > 100 |  | > 100 |  | > 100 |  | > 100 |  | > 100 |  | > 100 |  | > 100 |  | > 100
9 | Nc1ccn(CCNCCn2cnc3nc(N)[nH]c(=O)c32)c(=O)n1 |  | > 100 |  | > 100 |  |  |  | > 100 |  | > 100 |  | > 100 |  | > 100 |  | > 100 |  |  |  | > 100
10 | Cc1ccccc1[P+](Cc1ccccc1)(c1ccccc1)c1ccccc1 | 1.23 | 4.04 | 2.67 | 6.65 | 5.28 | > 100 |  |  | 1.51 | 4 | 1.92 | 13.2 | 1.42 | > 100 | 0.603 | 6.34 | 2.51 | 12.6 |  | 
11 | COc1cc(/C=C/c2cc(O)c3cc(C(C)=O)c(=O)oc3c2)cc2c1O[C@]1(C)CC[C@@H](O)C(C)(C)[C@H]1C2 | 2.12 | 10.7 |  | > 45.8 | > 20.6 | > 64 | > 22.2 | > 55 | > 27.5 | > 59.8 | > 28.2 | > 95.1 | > 33.1 | > 89.1 |  |  |  | > 20.2 | > 32.5 | > 64.1
12 | CN(C)CCCNC(CC#N)CCC#N (stereo not drawn) |  | > 10 |  | > 10 |  | > 10 |  | > 10 |  | > 10 |  | > 10 |  | > 10 |  |  |  | > 10 |  | > 10
13 | O=c1/c(=C/c2ccccc2F)sc2nc3ccccc3n12 |  | > 100 |  | > 100 |  |  |  | > 100 |  |  |  | > 100 |  | > 100 |  | > 100 |  | > 100 |  | > 100
14 | COc1ccc(-c2ccc(/C=N/n3c(COc4ccc(Cl)cc4Cl)nn(CN4CCOCC4)c3=S)o2)c([N+](=O)[O-])c1 | 19.1 | 41.1 |  |  | 10.8 | 52.1 | 22.5 | 66.7 | 30.8 | > 100 |  |  | 14.6 | 37.9 | 12.7 | 40.1 | 26 | 72.6 | > 100 | > 100
15 | CC1=C(Oc2ccccc2)C(CCC(=O)O)c2c(O)cc(Cl)c(O)c21 (stereo not drawn) |  | > 100 |  | > 100 |  |  |  | > 100 |  | > 100 |  | > 100 |  | > 100 |  | > 100 |  | > 100 |  | > 100
16 | CCOc1ccc(NC(=O)C(=O)CC(=O)C2=C(C)Nc3ccccc3S2)cc1 |  |  |  | > 50 |  | > 50 |  | > 50 |  | > 50 |  | > 50 |  | > 50 |  | > 50 |  | > 50 |  | > 50
